In ChEMBL document CHEMBL1135304, “Benzimidazole-based fXa inhibitors with improved thrombin and trypsin selectivity” (Bioorg Med Chem Lett, 2002):

Tests used:
Serine protease 1 = Serine protease 1 (Homo sapiens, UniProt P07477); assay: Tested in vitro for the selectivity against trypsin (Trp)
Prothrombin = Prothrombin (Homo sapiens, UniProt P00734); assay: Tested in vitro for the selectivity against thrombin (IIa)
Coagulation factor X = Coagulation factor X (Homo sapiens, UniProt P00742); assay: Tested in vitro for the inhibitory potency against Coagulation factor Xa
Coagulation factor X, sequence (P00742 41-179 limits assumed): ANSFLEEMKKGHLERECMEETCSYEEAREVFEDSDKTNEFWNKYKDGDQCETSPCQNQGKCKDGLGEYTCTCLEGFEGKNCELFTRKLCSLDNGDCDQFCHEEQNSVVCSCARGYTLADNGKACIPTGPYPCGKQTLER
Coagulation factor X, sequence (P00742 235-488 limits assumed): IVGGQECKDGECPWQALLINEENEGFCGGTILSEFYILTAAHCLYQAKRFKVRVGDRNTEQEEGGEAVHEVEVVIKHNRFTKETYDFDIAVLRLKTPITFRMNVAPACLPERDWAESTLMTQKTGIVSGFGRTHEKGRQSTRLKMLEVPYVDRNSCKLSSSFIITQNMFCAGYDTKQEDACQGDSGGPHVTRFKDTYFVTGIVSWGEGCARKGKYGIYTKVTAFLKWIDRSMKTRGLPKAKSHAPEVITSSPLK

Serine protease 1, sequence (P07477 whole entry): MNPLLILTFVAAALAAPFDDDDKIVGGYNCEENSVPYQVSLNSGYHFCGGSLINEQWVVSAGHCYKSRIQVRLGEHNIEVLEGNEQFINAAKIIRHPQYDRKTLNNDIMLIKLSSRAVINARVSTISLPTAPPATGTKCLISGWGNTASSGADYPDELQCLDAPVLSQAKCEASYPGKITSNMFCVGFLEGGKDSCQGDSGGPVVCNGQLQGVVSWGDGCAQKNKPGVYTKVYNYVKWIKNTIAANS

SMILES	Ki (Serine protease 1)	Ki (Prothrombin)	Ki (Coagulation factor X)
CCc1nc2c([N+](=O)[O-])c(OC3CCN(C(C)=N)CC3)ccc2n1Cc1ccc2ccc(C(=N)N)cc2c1	5 nM	3000 nM	0.1 nM
CCc1nc2ccc(OC3CCN(C(C)=N)CC3)cc2n1Cc1ccc(-c2ccc(C(=N)N)cc2)cc1	91 nM	22 nM	180 nM
CCc1nc2ccc(OC3CCN(C(C)=N)CC3)cc2n1Cc1cccc(-c2ccc(C(=N)N)cc2)c1	430 nM	3600 nM	150 nM
CCc1nc2ccc(OC3CCN(C(C)=N)CC3)cc2n1Cc1ccc(-c2cccc(C(=N)N)c2)cc1	73 nM	770 nM	2.2 nM
CCc1nc2cc(OC3CCN(C(C)=N)CC3)ccc2n1Cc1ccc(-c2ccc(C(=N)N)cc2)cc1	150 nM	1500 nM	670 nM
CC(=N)N1CCC(Oc2ccc3c(nc(C(C)C)n3Cc3ccc4ccc(C(=N)N)cc4c3)c2[N+](=O)[O-])CC1	3 nM	> 5000 nM	0.2 nM
CCc1nc2c(N(CC(=O)O)CC(=O)O)c(OC3CCN(C(C)=N)CC3)ccc2n1Cc1ccc2ccc(C(=N)N)cc2c1	15 nM	> 5000 nM	50 nM
CCc1nc2ccc(OC3CCN(C(C)=N)CC3)cc2n1Cc1cccc(-c2cccc(C(=N)N)c2)c1	190 nM	190 nM	34 nM
CCc1nc2cc(OC3CCN(C(C)=N)CC3)ccc2n1Cc1cccc(-c2ccc(C(=N)N)cc2)c1	690 nM	> 5000 nM	260 nM

The next lines start with the values.

Ki (Serine protease 1)	Ki (Prothrombin)	Ki (Coagulation factor X)	SMILES
67 nM	1120 nM	–	CCc1nc2cc(OC3CCN(C(C)=N)CC3)ccc2n1Cc1cccc(-c2cccc(C(=N)N)c2)c1
10 nM	> 5000 nM	5 nM	CCc1nc2c(N(C)C)c(OC3CCN(C(C)=N)CC3)ccc2n1Cc1ccc2ccc(C(=N)N)cc2c1
5 nM	2000 nM	–	CCc1nc2cc(OC3CCN(C(C)=N)CC3)ccc2n1Cc1ccc2ccc(C(=N)N)cc2c1
3 nM	> 5000 nM	–	CC(=N)N1CCC(Oc2ccc3c(nc(C)n3Cc3ccc4ccc(C(=N)N)cc4c3)c2[N+](=O)[O-])CC1
25 nM	> 5000 nM	50 nM	CCc1nc2c(NC(C)=O)c(OC3CCN(C(C)=N)CC3)ccc2n1Cc1ccc2ccc(C(=N)N)cc2c1
140 nM	210 nM	17 nM	CCc1nc2cc(OC3CCN(C(C)=N)CC3)ccc2n1Cc1ccc(-c2cccc(C(=N)N)c2)cc1
24 nM	3500 nM	8 nM	CCc1nc2c(N)c(OC3CCN(C(C)=N)CC3)ccc2n1Cc1ccc2ccc(C(=N)N)cc2c1
